In US11293931B2, “Quantitative profiling of progesterone metabolites for the prediction of spontaneous preterm delivery” (Indiana University Research and Technology Corporation, priority 2016, dated 2022):

Tests used:
[1] = tested on: CALM2; experiment: Gene array of calmodulin expression with progestogen treatment: CALM2; type: cell-based, human; details: primary myometrial cells treated with a 1:10 M/G ratio; for fold increase in CALM2 expression: compared to DMSO treated controls (FIG. 11)
Protocol: (§1) The effect of progesterone or HPC treatment on calmodulin gene expression (CALM1, CALM2, CALM3) was further explored. Primary myometrial cells were treated with a 1:10 M/G ratio and a gene array used to assess calmodulin expression. […] The fold change in total CALM expression (trend line for all three isoforms) was approximately half with HPC treatment (4.4-fold) compared to progesterone (8.9-fold) or control treatments (8.3-fold).

[2] = tested on: CALM1; experiment: Gene array of calmodulin expression with progestogen treatment: CALM1; type: cell-based, human; details: primary myometrial cells treated with a 1:10 M/G ratio, compared to DMSO treated controls (FIG. 11)
Protocol: as §1

[3] = tested on: CALM3; experiment: Gene array of calmodulin expression with progestogen treatment: CALM3; type: cell-based, human; details: primary myometrial cells treated with a 1:10 M/G ratio, compared to DMSO treated controls (FIG. 11)
Protocol: as §1

[4] = tested on: total CALM expression; experiment: Gene array of calmodulin expression with progestogen treatment: total CALM (all three isoforms); type: cell-based, human; details: primary myometrial cells treated with a 1:10 M/G ratio
Protocol: as §1

[5] = women with a prior history of spontaneous preterm birth; cited from earlier work

SMILES	reduction in CALM2 expression compared to progesterone treated cells [1] [%]	fold increase in CALM2 expression [1] [fold]	change in CALM1 expression [2]	change in CALM3 expression [3]	fold change in total CALM expression (trend line for all three isoforms) [4] [fold]	reduction in the risk of recurrent sPTB [5]
CCCCCC(=O)O[C@]1(C(C)=O)CC[C@H]2[C@@H]3CCC4=CC(=O)CC[C@]4(C)[C@H]3CC[C@@]21C [HPC, 17α-hydroxyprogesterone caproate]	~30	9	modest decreases	modest decreases	4.4	30-40%
CC(=O)[C@H]1CC[C@H]2[C@@H]3CCC4=CC(=O)CC[C@]4(C)[C@H]3CC[C@]12C [progesterone]		13	modest decreases	modest decreases	8.9	
